This assay addresses T1, human GLP-1R receptor (Homo sapiens, UniProt P43220).
T1 construct: expressed in transfected cells
The experiment in a line: GLP-1R low expression cell assay (cAMP TR-FRET, CHO-K1_hGLP-1Rlow_clone10 cells). The format is cell-based. The conditions noted are these: for EC50: cAMP TR-FRET, 30 min at 25° C.; for Emax: maximum activation relative to control GLP-1 peptide agonist. An outline of the steps: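 Readout is cAMP TR-FRET after 30 min compound stimulation at 25 °C of a low-GLP-1R-expressing CHO-K1 clone (1,000 cells/well), with 10-point 3-fold serial dilutions. Percent activation versus a control GLP-1 peptide, from duplicates, was Hill-fitted to give EC50.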
In general terms: Time-resolved FRET reads energy transfer from a long-lived donor to a nearby acceptor.

The EC50 is the concentration that produces a half-maximal response. By Emax is commonly meant the size of the effect at its maximum, as opposed to the concentration needed.

T1 sequence (P43220 24-463): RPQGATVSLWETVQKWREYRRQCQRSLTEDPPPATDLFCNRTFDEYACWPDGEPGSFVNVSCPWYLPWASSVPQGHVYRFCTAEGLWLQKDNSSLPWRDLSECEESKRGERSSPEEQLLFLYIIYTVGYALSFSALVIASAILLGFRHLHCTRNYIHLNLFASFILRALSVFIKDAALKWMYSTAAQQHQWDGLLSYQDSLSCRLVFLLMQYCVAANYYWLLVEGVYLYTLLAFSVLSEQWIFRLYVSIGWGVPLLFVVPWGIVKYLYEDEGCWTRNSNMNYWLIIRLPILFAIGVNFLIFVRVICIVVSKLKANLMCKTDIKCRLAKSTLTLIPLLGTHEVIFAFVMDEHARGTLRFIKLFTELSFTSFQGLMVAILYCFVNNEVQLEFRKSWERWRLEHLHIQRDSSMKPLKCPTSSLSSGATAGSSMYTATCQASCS

In the case of `O=C(O)c1ccc2c(nc(CN3CCC(c4cccc(OCc5ccc(Cl)cc5F)n4)CC3)n2C[C@@H]2CCO2)c1OC(F)F` [Compound 191, (S)-2-((4-(6-((4-chloro-2-fluorobenzyl)oxy)pyridin-2-yl)piperidin-1-yl)methyl)-4-(difluoromethoxy)-1-(oxetan-2-ylmethyl)-1H-benzo[d]imidazole-5-carboxylic acid], the concentration for a half-maximal effect (EC50) was in the range of 100 to 1000 nM and the Emax was above 85%.

With `COc1cc(C(=O)O)cc2nc(CN3CCC(c4cccc(OCc5ccc(Cl)cc5F)n4)CC3)n(CF)c12` [Compound 192, 2-((4-(6-((4-Chloro-2-fluorobenzyl)oxy)pyridin-2-yl)piperidin-1-yl)methyl)-1-(fluoromethyl)-7-methoxy-1H-benzo[d]imidazole-5-carboxylic acid], the EC50 was above 1000 nM and the Emax lay in the range of 50 to 85%.

With `Cn1c(CN2CCC(c3ccc4c(c3)N(Cc3ccc(Cl)cc3F)C(=O)CO4)CC2)nc2c(OC(F)F)cc(C(=O)O)cc21` [Compound 193, 2-((4-(4-(4-chloro-2-fluorobenzyl)-3-oxo-3,4-dihydro-2H-benzo[b][1,4]oxazin-6-yl)piperidin-1-yl)methyl)-4-(difluoromethoxy)-1-methyl-1H-benzo[d]imidazole-6-carboxylic acid], the EC50 was above 1000 nM and the Emax was below 25%.

In turn, `Cn1c(CN2CCC(c3ccc(Cl)c(OCc4ccc(Cl)cc4F)c3)CC2)nc2c(OC(F)F)cc(C(=O)O)cc21` [Compound 194, 2-((4-(4-Chloro-3-((4-chloro-2-fluorobenzyl)oxy)phenyl)piperidin-1-yl)methyl)-4-(difluoromethoxy)-1-methyl-1H-benzo[d]imidazole-6-carboxylic acid] registered an EC50 of 100 to 1000 nM and an Emax above 85%.

`[2H]C([2H])(Oc1cccc(C2CCN(Cc3nc4c(OC(F)F)cc(C(=O)O)cc4n3C)CC2)n1)c1ccc(Cl)cc1F` [Compound 195, 2-((4-(6-((4-Chloro-2-fluorophenyl)methoxy-d2)pyridin-2-yl)piperidin-1-yl)methyl)-4-(difluoromethoxy)-1-methyl-1H-benzo[d]imidazole-6-carboxylic acid] came in with an EC50 of 10 to 100 nM and an Emax above 85%.

With `Cn1c(CN2CCC(Oc3cccc(COc4ccc(Cl)cc4F)n3)CC2)nc2c(OC(F)F)cc(C(=O)O)cc21` [Compound 196, 2-((4-((6-((4-Chloro-2-fluorophenoxy)methyl)pyridin-2-yl)oxy)piperidin-1-yl)methyl)-4-(difluoromethoxy)-1-methyl-1H-benzo[d]imidazole-6-carboxylic acid], the concentration for a half-maximal effect (EC50) lay in the range of 10 to 100 nM and the Emax is above 85%.

In turn, `Cn1c(Cc2cc(F)c(-c3cccc(OCc4ccc(Cl)cc4F)n3)cc2F)nc2c(OC(F)F)cc(C(=O)O)cc21` [Compound 197, 2-(4-(6-((4-Chloro-2-fluorobenzyl)oxy)pyridin-2-yl)-2,5-difluorobenzyl)-4-(difluoromethoxy)-1-methyl-1H-benzo[d]imidazole-6-carboxylic acid] returned an EC50 below 10 nM and an Emax above 85%.

The compound `Cn1c(Cc2ccc(-c3cccc(OCc4ccc(Cl)cc4F)n3)cc2F)nc2c(OC(F)F)cc(C(=O)O)cc21` [Compound 198, 2-(4-(6-((4-Chloro-2-fluorobenzyl)oxy)pyridin-2-yl)-2-fluorobenzyl)-4-(difluoromethoxy)-1-methyl-1H-benzo[d]imidazole-6-carboxylic acid] returned a half-maximal effective concentration (EC50) of 10 to 100 nM and an Emax above 85%.

Consider `O=C(O)c1cc(OC(F)F)c2nc(CN3CCC(c4cccc(OCc5ccc(Cl)cc5F)n4)CC3)n(C3CC3)c2c1` [Compound 199, 2-((4-(6-((4-Chloro-2-fluorobenzyl)oxy)pyridin-2-yl)piperidin-1-yl)methyl)-1-cyclopropyl-4-(difluoromethoxy)-1H-benzo[d]imidazole-6-carboxylic acid], for which the half-maximal effective concentration (EC50) lay within 10 to 100 nM and the Emax is above 85%.

As to `Cn1c(CN2CCC(n3nccc3OCc3ccc(Cl)cc3F)CC2)nc2c(OC(F)F)cc(C(=O)O)cc21` [Compound 200, 2-((4-(5-((4-Chloro-2-fluorobenzyl)oxy)-1H-pyrazol-1-yl)piperidin-1-yl)methyl)-4-(difluoromethoxy)-1-methyl-1H-benzo[d]imidazole-6-carboxylic acid], the EC50 was above 1000 nM and the maximal effect (Emax) is above 85%.

For the compound `Cn1c(CN2CCC(c3cccc(OCc4ccc(C(F)F)cc4F)n3)CC2)nc2c(OC(F)F)cc(C(=O)O)cc21` [Compound 201, 4-(Difluoromethoxy)-2-((4-(6-((4-(difluoromethyl)-2-fluorobenzyl)oxy)pyridin-2-yl)piperidin-1-yl)methyl)-1-methyl-1H-benzo[d]imidazole-6-carboxylic acid], the EC50 lay within 10 to 100 nM and the maximum response (Emax) was above 85%.

`Cn1c(CN2CCC(c3cccc(OCc4ccc(Cl)cc4F)n3)CC2)nc2c(OCC#N)cc(C(=O)O)cc21` [Compound 202]: the EC50 lay within 10 to 100 nM and the maximal response (Emax) is above 85%.

`Cn1c(CN2CCC(c3cccc(OCc4ccc(C(F)(F)F)cc4)n3)CC2)nc2c(OC(F)F)cc(C(=O)O)cc21` [Compound 203, 4-(difluoromethoxy)-1-methyl-2-((4-(6-((4-(trifluoromethyl)benzyl)oxy)pyridin-2-yl)piperidin-1-yl)methyl)-1H-benzo[d]imidazole-6-carboxylic acid]: the EC50 fell in the range of 10 to 100 nM and the Emax is above 85%.

For `O=C(O)c1ccc2nc(CN3CCC(c4cccc(OCc5ccc(Cl)cc5F)n4)CC3)[nH]c2c1O` [Compound 204, 2-((4-(6-((4-Chloro-2-fluorobenzyl)oxy)pyridin-2-yl)piperidin-1-yl)methyl)-7-hydroxy-1H-benzo[d]imidazole-6-carboxylic acid], the EC50 was above 1000 nM and the Emax is above 85%.

In turn, `Cn1c(CN2CCC(c3ccc4ccn(Cc5ccc(Cl)cc5F)c4n3)CC2)nc2c(OC(F)F)cc(C(=O)O)cc21` [Compound 205, 2-((4-(1-(4-Chloro-2-fluorobenzyl)-1H-pyrrolo[2,3-b]pyridin-6-yl)piperidin-1-yl)methyl)-4-(difluoromethoxy)-1-methyl-1H-benzo[d]imidazole-6-carboxylic acid] showed an EC50 above 1000 nM and an Emax of 50 to 85%.

Compound `O=C(O)c1cc(OC(F)F)c2c(c1)nc(CN1CCC(c3cccc(OCc4ccc(Cl)cc4F)n3)CC1)n2CF` [Compound 206, 2-((4-(6-((4-Chloro-2-fluorobenzyl)oxy)pyridin-2-yl)piperidin-1-yl)methyl)-7-(difluoromethoxy)-1-(fluoromethyl)-1H-benzo[d]imidazole-5-carboxylic acid] had an EC50 above 1000 nM and an Emax below 25%.

Turning to `O=C(O)c1cc(OC(F)F)c2nc(CN3CCC(c4cccc(OCc5ccc(Cl)cc5F)n4)CC3)n(CF)c2c1` [Compound 208, 2-((4-(6-((4-Chloro-2-fluorobenzyl)oxy)pyridin-2-yl)piperidin-1-yl)methyl)-4-(difluoromethoxy)-1-(fluoromethyl)-1H-benzo[d]imidazole-6-carboxylic acid], the EC50 was in the range of 10 to 100 nM and the Emax was above 85%.

For `COc1cc(C(=O)O)cc2c1nc(CN1CCC(c3cccc(OCc4ccc(Cl)cc4F)n3)CC1)n2CF` [Compound 209, 2-((4-(6-((4-Chloro-2-fluorobenzyl)oxy)pyridin-2-yl)piperidin-1-yl)methyl)-1-(fluoromethyl)-4-methoxy-1H-benzo[d]imidazole-6-carboxylic acid], the EC50 lay within 10 to 100 nM and the maximal response (Emax) is above 85%.

Compound `O=C(O)c1ccc2nc(CN3CCC(c4cccc(OCc5ccc(Cl)cc5F)n4)CC3)[nH]c2c1OC(F)F` [Compound 210, 2-((4-(6-((4-Chloro-2-fluorobenzyl)oxy)pyridin-2-yl)piperidin-1-yl)methyl)-7-(difluoromethoxy)-1H-benzo[d]imidazole-6-carboxylic acid] yielded an EC50 above 1000 nM and an Emax of 25 to 50%.

In the case of `Cn1c(CN2CCC(c3cccc(OCc4ccc(Cl)cc4F)n3)CC2)nc2c(OC[C@@H]3CCO3)cc(C(=O)O)cc21` [Compound 211, (S)-2-((4-(6-((4-Chloro-2-fluorobenzyl)oxy)pyridin-2-yl)piperidin-1-yl)methyl)-1-methyl-4-(oxetan-2-ylmethoxy)-1H-benzo[d]imidazole-6-carboxylic acid], the EC50 is 10 to 100 nM and the maximal response (Emax) is above 85%.

`COc1c(Cl)ccc(COc2cccc(C3CCN(Cc4nc5c(OC(F)F)cc(C(=O)O)cc5n4C)CC3)n2)c1F` [Compound 212, 2-((4-(6-((4-Chloro-2-fluoro-3-methoxybenzyl)oxy)pyridin-2-yl)piperidin-1-yl)methyl)-4-(difluoromethoxy)-1-methyl-1H-benzo[d]imidazole-6-carboxylic acid] came in with a concentration giving a half-maximal response (EC50) of 100 to 1000 nM and a maximal response (Emax) above 85%.

`Cn1c(CN2CCC(c3cccc(OCc4ccc(C#N)cn4)n3)CC2)nc2c(OC(F)F)cc(C(=O)O)cc21` [Compound 213, 2-((4-(6-((5-Cyanopyridin-2-yl)methoxy)pyridin-2-yl)piperidin-1-yl)methyl)-4-(difluoromethoxy)-1-methyl-1H-benzo[d]imidazole-6-carboxylic acid] yielded a 50% effective concentration (EC50) of 100 to 1000 nM and an Emax above 85%.

`Cn1c(CN2CCC(c3cccc(OCc4ccc(Cl)cc4F)n3)CC2)nc2c(OCC3(C#N)CC3)cc(C(=O)O)cc21` [Compound 214, 2-((4-(6-((4-Chloro-2-fluorobenzyl)oxy)pyridin-2-yl)piperidin-1-yl)methyl)-4-((1-cyanocyclopropyl)methoxy)-1-methyl-1H-benzo[d]imidazole-6-carboxylic acid] had a concentration for a half-maximal effect (EC50) of 100 to 1000 nM and an Emax of 50 to 85%.

Source of the values: patent US20240368120A1 (Terns Pharmaceuticals, Inc., priority 2023, published 2024).
